One experiment deals with Mcl-1 (Homo sapiens (Human), UniProt Q07820). Kind of experiment: Fluorescence polarization anisotropy (FPA) competition assay, FITC-Bak or FITC-Bim BH3 peptide. Format: binding. Particulars: read-out: Ki for Inhibition of Mcl-1 by FPA assay. For orientation: Polarisation of emitted light reports the rotation of a fluorescent probe.
The test system of experiment [1] is H929 human cancer cell lines. Description: Cellular viability / proliferation (Cell TiterGlo, 72 h). Format: cell-based. The procedure, abridged:
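Top dose 50 μM, serially diluted 2-fold, applied one day after seeding (1,000 cells/well, 10% FBS), DMSO below 1%.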
(In ATP-based viability assays light output follows the ATP content of the culture.)

Where [2] appears, read: Homo sapiens, NCI-H929, 72 h, read-out: GI50 on cellular proliferation of H929 human cancer cell lines, H929 cells, 72 h, Cell TiterGlo, 10% FBS.

Read-outs that look alike come from different tables or passages of the source.

Chain of Mcl-1 (Q07820 172-327): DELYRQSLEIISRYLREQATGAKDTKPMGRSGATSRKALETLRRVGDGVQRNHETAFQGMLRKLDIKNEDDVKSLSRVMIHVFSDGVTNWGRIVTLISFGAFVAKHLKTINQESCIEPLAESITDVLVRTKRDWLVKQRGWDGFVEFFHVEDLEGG

For the compound `COc1cc(C(=O)O)cc(N2CCCn3c(c(CCCOc4cc(C)c(Cl)c(C)c4)c4ccc(Cl)c(-c5c(C)nn(C)c5C)c43)C2=O)c1OCCCO` [Example 67, 3-[8-Chloro-11-[3-(4-chloro-3,5-dimethyl-phenoxy)propyl]-1-oxo-7-(1,3,5-trimethylpyrazol-4-yl)-4,5-dihydro-3H-[1,4]diazepino[1,2-a]indol-2-yl]-4-(3-hydroxypropoxy)-5-methoxy-benzoic acid], the Ki at Mcl-1 is less than 1 nM. In experiment [1] (setting [2]), the GI50 stood at 8500 nM.

For the compound `Cc1cc(OCCCc2c3n(c4c(-c5c(C)nn(C)c5C)c(Cl)ccc24)[C@H](C)CN(c2cccc4c(C(=O)O)cn(C)c24)C3=O)cc(C)c1Cl` [Example 69, (R)-7-(7-Chloro-10-(3-(4-chloro-3,5-dimethylphenoxy)propyl)-4-methyl-1-oxo-6-(1,3,5-trimethyl-1H-pyrazol-4-yl)-3,4-dihydropyrazino[1,2-a]indol-2(1H)-yl)-1-methyl-1H-indole-3-carboxylic acid], the Ki at Mcl-1 is less than 1 nM. In experiment [1] (read-out: GI50 on cellular proliferation of H929 human cancer cell lines, H929 cells, 72 h, Cell TiterGlo, 10% FBS), the GI50 is less than 200 nM.

Take `Cc1cc(OCCCc2c3n(c4c(-c5c(C)n[nH]c5C)c(Cl)ccc24)[C@H](C)CN(c2cc(C(=O)O)c4ccn(C)c4c2)C3=O)cc(C)c1Cl` [Example 70, (R)-6-(7-chloro-10-(3-(4-chloro-3,5-dimethylphenoxy)propyl)-6-(3,5-dimethyl-1H-pyrazol-4-yl)-4-methyl-1-oxo-3,4-dihydropyrazino[1,2-a]indol-2(1H)-yl)-1-methyl-1H-indole-4-carboxylic acid]: on Mcl-1, the Ki was less than 1 nM. Further, the GI50 in experiment [1] (setting [2]) was determined as 2400 nM.

As to `Cc1cc(OCCCc2c3n(c4c(-c5c(C)n[nH]c5C)c(Cl)ccc24)[C@H](C)CN(c2cc(C(=O)O)cc4c2ccn4C)C3=O)cc(C)c1Cl` [Example 71, (R)-4-(7-chloro-10-(3-(4-chloro-3,5-dimethylphenoxy)propyl)-6-(3,5-dimethyl-1H-pyrazol-4-yl)-4-methyl-1-oxo-3,4-dihydropyrazino[1,2-a]indol-2(1H)-yl)-1-methyl-1H-indole-6-carboxylic acid], at Mcl-1, the Ki is less than 1 nM. Further, in experiment [1] (setting [2]), the GI50 turned out to be 3300 nM.

Take `Cc1cc(OCCCc2c3n(c4c(-c5c(C)n[nH]c5C)c(Cl)ccc24)CCCN(c2cc(C(=O)O)cc4c2ccn4C)C3=O)cc(C)c1Cl` [Example 72, 4-(8-chloro-11-(3-(4-chloro-3,5-dimethylphenoxy)propyl)-7-(3,5-dimethyl-1H-pyrazol-4-yl)-1-oxo-4,5-dihydro-1H-[1,4]diazepino[1,2-a]indol-2(3H)-yl)-1-methyl-1H-indole-6-carboxylic acid]: on Mcl-1, the Ki was less than 1 nM. Besides, in experiment [1] (setting [2]), the GI50 was determined as 4700 nM.

Take `Cc1cc(OCCCc2c3n(c4c(-c5c(C)nn(C)c5C)c(Cl)ccc24)[C@H](C)CN(c2cn(C)c4c(C(=O)O)cccc24)C3=O)cc(C)c1Cl` [Example 75, (R)-3-(7-Chloro-10-(3-(4-chloro-3,5-dimethylphenoxy)propyl)-4-methyl-1-oxo-6-(1,3,5-trimethyl-1H-pyrazol-4-yl)-3,4-dihydropyrazino[1,2-a]indol-2(1H)-yl)-1-methyl-1H-indole-7-carboxylic acid]: the Ki on Mcl-1 is less than 1 nM. Further, the GI50 in experiment [1] (setting [2]) stood at 1100 nM.

In the case of `Cc1cc(OCCCc2c3n(c4c(-c5c(C)nn(C)c5C)c(Cl)ccc24)[C@H](C)CN(c2ccc4c(C(=O)O)cn(C)c4c2)C3=O)cc(C)c1Cl` [Example 79, (R)-6-(7-Chloro-10-(3-(4-chloro-3,5-dimethylphenoxy)propyl)-4-methyl-1-oxo-6-(1,3,5-trimethyl-1H-pyrazol-4-yl)-3,4-dihydropyrazino[1,2-a]indol-2(1H)-yl)-1-methyl-1H-indole-3-carboxylic acid], the Ki at Mcl-1 is less than 1 nM. The GI50 in experiment [1] (setting [2]) amounted to 1500 nM.

Take `Cc1cc(OCCCc2c3n(c4c(-c5c(C)nn(C)c5C)c(Cl)ccc24)CCCN(c2ccc4c(C(=O)O)cn(C)c4c2)C3=O)cc(C)c1Cl` [Example 81, 6-(8-Chloro-11-(3-(4-chloro-3,5-dimethylphenoxy)propyl)-1-oxo-7-(1,3,5-trimethyl-1H-pyrazol-4-yl)-4,5-dihydro-1H-[1,4]diazepino[1,2-a]indol-2(3H)-yl)-1-methyl-1H-indole-3-carboxylic acid]: the Ki at Mcl-1 came to 2.4 nM. Also, in experiment [1] (setting [2]), the GI50 came to 2900 nM.

`COCCn1ncc2c(C(=O)O)cc(N3CCCn4c(c(CCCOc5cc(C)c(Cl)c(C)c5)c5ccc(Cl)c(-c6c(C)nn(C)c6C)c54)C3=O)cc21` [Example 82, 6-[8-Chloro-11-[3-(4-chloro-3,5-dimethyl-phenoxy)propyl]-1-oxo-7-(1,3,5-trimethylpyrazol-4-yl)-4,5-dihydro-3H-[1,4]diazepino[1,2-a]indol-2-yl]-1-(2-methoxyethyl)indazole-4-carboxylic acid]: the Ki at Mcl-1 is less than 1 nM. Further, the GI50 in experiment [1] (setting [2]) was 4800 nM.

On to `CCn1cc(N2C[C@@H](C)n3c(c(CCCOc4cc(C)c(Cl)c(C)c4)c4ccc(Cl)c(-c5c(C)nn(C)c5C)c43)C2=O)c2cccc(C(=O)O)c21` [Example 83, (R)-3-(7-Chloro-10-(3-(4-chloro-3,5-dimethylphenoxy)propyl)-4-methyl-1-oxo-6-(1,3,5-trimethyl-1H-pyrazol-4-yl)-3,4-dihydropyrazino[1,2-a]indol-2(1H)-yl)-1-ethyl-1H-indole-7-carboxylic acid], for which, at Mcl-1, the inhibition constant (Ki) was less than 1 nM. Moreover, the GI50 in experiment [1] (setting [2]) is 1100 nM.

As for `Cc1cc(OCCCc2c3n(c4c(-c5c(C)nn(C)c5C)c(Cl)ccc24)[C@H](C)CN(c2cc(C(=O)O)cc4c2cnn4C)C3=O)cc(C)c1Cl` [Example 84, (R)-4-(7-chloro-10-(3-(4-chloro-3,5-dimethylphenoxy)propyl)-4-methyl-1-oxo-6-(1,3,5-trimethyl-1H-pyrazol-4-yl)-3,4-dihydropyrazino[1,2-a]indol-2(1H)-yl)-1-methyl-1H-indazole-6-carboxylic acid], the Ki on Mcl-1 was less than 1 nM. Also, the GI50 in experiment [1] (setting [2]) stood at 1200 nM.

For `Cc1cc(OCCCc2c3n(c4c(-c5c(C)nn(C)c5C)c(Cl)ccc24)[C@H](C)CN(c2cn(C)c4cc(C(=O)O)ccc24)C3=O)cc(C)c1Cl` [Example 88, (R)-3-(7-Chloro-10-(3-(4-chloro-3,5-dimethylphenoxy)propyl)-4-methyl-1-oxo-6-(1,3,5-trimethyl-1H-pyrazol-4-yl)-3,4-dihydropyrazino[1,2-a]indol-2(1H)-yl)-1-methyl-1H-indole-6-carboxylic acid], the Ki on Mcl-1 was less than 1 nM. Also, in experiment [1] (setting [2]), the GI50 turned out to be 290 nM.

Consider `Cc1cc(OCCCc2c3n(c4c(-c5c(C)nn(C)c5C)c(Cl)ccc24)CCCN(c2cn(CCN4CCOCC4)c4cc(C(=O)O)ccc24)C3=O)cc(C)c1Cl` [Example 89, 3-(8-Chloro-11-(3-(4-chloro-3,5-dimethylphenoxy)propyl)-1-oxo-7-(1,3,5-trimethyl-1H-pyrazol-4-yl)-4,5-dihydro-1H-[1,4]diazepino[1,2-a]indol-2(3H)-yl)-1-(2-morpholinoethyl)-1H-indole-6-carboxylic acid], for which, on Mcl-1, the Ki is less than 1 nM. Moreover, in experiment [1] (setting [2]), the GI50 turned out to be 1300 nM.

On to `Cc1cc(OCCCc2c3n(c4c(-c5c(C)nn(C)c5C)c(Cl)ccc24)CCCN(c2cc(C(=O)O)c4cnn(C(C)C)c4c2)C3=O)cc(C)c1Cl` [Example 92, 6-[8-Chloro-11-[3-(4-chloro-3,5-dimethyl-phenoxy)propyl]-1-oxo-7-(1,3,5-trimethylpyrazol-4-yl)-4,5-dihydro-3H-[1,4]diazepino[1,2-a]indol-2-yl]-1-isopropyl-indazole-4-carboxylic acid], for which the Ki on Mcl-1 was less than 1 nM. In experiment [1] (setting [2]), the GI50 stood at 900 nM.

Consider `Cc1cc(OCCCc2c3n(c4c(-c5c(C)n[nH]c5C)c(Cl)ccc24)[C@H](C)CN(c2cc(C(=O)O)c4cnn(C)c4c2)C3=O)cc(C)c1Cl` [Example 93, (R)-6-(7-chloro-10-(3-(4-chloro-3,5-dimethylphenoxy)propyl)-6-(3,5-dimethyl-1H-pyrazol-4-yl)-4-methyl-1-oxo-3,4-dihydropyrazino[1,2-a]indol-2(1H)-yl)-1-methyl-1H-indazole-4-carboxylic acid], for which the Ki at Mcl-1 was less than 1 nM. Further, the GI50 in experiment [1] (setting [2]) came to 7500 nM.

`Cc1cc(OCCCc2c3n(c4c(-c5c(C)nn(C)c5C)c(Cl)ccc24)[C@H](C)CN(c2cc(C(=O)O)c4ccn(CCN5CCOCC5)c4c2)C3=O)cc(C)c1Cl` [Example 94, (R)-6-(7-chloro-10-(3-(4-chloro-3,5-dimethylphenoxy)propyl)-4-methyl-1-oxo-6-(1,3,5-trimethyl-1H-pyrazol-4-yl)-3,4-dihydropyrazino[1,2-a]indol-2(1H)-yl)-1-(2-morpholinoethyl)-1H-indole-4-carboxylic acid]: the Ki on Mcl-1 is less than 1 nM. Further, the GI50 in experiment [1] (setting [2]) is 1500 nM.

In the case of `Cc1cc(OCCCc2c3n(c4c(-c5c(C)n[nH]c5C)c(Cl)ccc24)CCCN(c2cc(C(=O)O)c4cnn(C)c4c2)C3=O)cc(C)c1Cl` [Example 95, 6-(8-Chloro-1-(3-(4-chloro-3,5-dimethylphenoxy)propyl)-7-(3,5-dimethyl-1H-pyrazol-4-yl)-1-oxo-4,5-dihydro-1H-[1,4]diazepino[1,2-a]indol-2(3H)-yl)-1-methyl-1H-indazole-4-carboxylic acid], the Ki on Mcl-1 was less than 1 nM. Also, the GI50 in experiment [1] (H929 cells, 72 h, Cell TiterGlo, 10% FBS, read-out: GI50 on cellular proliferation of H929 human cancer cell lines) was found to be 10000 nM.

With `Cc1cc(OCCCc2c3n(c4c(-c5c(C)nn(C)c5C)c(Cl)ccc24)[C@H](C)CN(c2cc(C(=O)O)cc4c2ccn4CCN2CCOCC2)C3=O)cc(C)c1Cl` [Example 96, (R)-4-(7-chloro-10-(3-(4-chloro-3,5-dimethylphenoxy)propyl)-4-methyl-1-oxo-6-(1,3,5-trimethyl-1H-pyrazol-4-yl)-3,4-dihydropyrazino[1,2-a]indol-2(1H)-yl)-1-(2-morpholinoethyl)-1H-indole-6-carboxylic acid], the Ki at Mcl-1 was determined as 2.9 nM. Moreover, the GI50 in experiment [1] (setting [2]) was determined as 4700 nM.

The Ki is a dissociation constant, usually derived from enzyme kinetics or from competition with a known ligand.

Values taken from patent US11596639B2, “Substituted indole Mcl-1 inhibitors” (Vanderbilt University, priority 2016, dated 2023).
